Structures can show the parent of a compound that is named as a salt. Where two headings read alike, the source gives them in different places.
Experiments:
Swiss Webster mice = assay: Tail immersion assay (agonism, and antagonism of morphine); assay type: in vivo, mouse; settings: for AD50 (antagonism of morphine antinociception): 95% confidence level in brackets; for % MPE of morphine (10 mg/kg) in the presence of test compound (antagonism): test compound 10 mg/kg s.c., 5 min before morphine
MOR [1] = biological target: T1, MOR (Mus musculus, UniProt P42866); settings: for EC50: read-out: MOR 35S-GTP[γS] Binding EC50; for MOR 35S-GTP[γS] Binding % Emax of DAMGO: relative to 3 μM DAMGO
DOR [2] = biological target: T2, DOR (Homo sapiens, UniProt P41143); assay: biochemical; assay type: binding; design: expressed in transfected cells; host or cells: CHO
MOR [3] = biological target: T1, MOR; assay: Competition radioligand binding, MOR ([3H]naloxone); design: expressed in transfected cells; host or cells: CHO; settings: CHO cell membranes
KOR [4] = biological target: T3, KOR (Homo sapiens, UniProt P41145); assay: biochemical; assay type: binding
T3 construct: expressed in transfected cells; host or cells: CHO

MOR [5] = biological target: T1, MOR; assay: Desensitization study: DAMGO-induced [35S]GTPγS binding after ligand pretreatment of mMOR-CHO cells; assay type: cell-based; design: expressed in transfected cells; host or cells: CHO
mouse μ opioid receptor = mouse μ opioid receptor (Mus musculus, UniProt P42866); assay: Calcium mobilization assay in mMOR-CHO cells; assay type: cell-based
P-gp = assay: Caco-2 bidirectional transport assay; settings: human
Caco-2 monolayers [6] = assay: Caco-2 bidirectional transport assay
morphine-pelleted mice = assay: Withdrawal study in morphine-pelleted mice
C57BL/6J mice = assay: Warm-water tail-withdrawal test with cumulative morphine dosing; assay type: in vivo, mouse
MOR [7] = biological target: T1, MOR; assay: biochemical
rat MOR = biological target: T4, rat MOR (Rattus norvegicus, UniProt P33535); assay type: cell-based
T4 construct: expressed in transfected cells; host or cells: Neuro2A murine neuroblastoma cells (clones H38 and H16)

MOR [8] = biological target: T1, MOR; settings: 24 h pretreatment (DAMGO, morphine 5 μM; nalbuphine, naltrexone 1 μM); previously published; cited from earlier work
Caco-2 monolayers [9] = settings: related study, cited from earlier work
MOR [10] = biological target: T1, MOR; design: expressed in transfected cells; host or cells: CHO; settings: read-out: Ki MOR; [3H]naloxone; values from reference 44a/57a; cited from earlier work
MOR [11] = biological target: T1, MOR; settings: values from reference 44a/57a, cited from earlier work
KOR [12] = biological target: T3, KOR; settings: values from reference 44a/57a; cited from earlier work
DOR [13] = biological target: T2, DOR; settings: values from reference 44a/57a; cited from earlier work
[14] = read-out: MOR 35S-GTP[γS] Binding % Emax of DAMGO, relative to 3 μM DAMGO

T2 sequence (P41143 whole entry): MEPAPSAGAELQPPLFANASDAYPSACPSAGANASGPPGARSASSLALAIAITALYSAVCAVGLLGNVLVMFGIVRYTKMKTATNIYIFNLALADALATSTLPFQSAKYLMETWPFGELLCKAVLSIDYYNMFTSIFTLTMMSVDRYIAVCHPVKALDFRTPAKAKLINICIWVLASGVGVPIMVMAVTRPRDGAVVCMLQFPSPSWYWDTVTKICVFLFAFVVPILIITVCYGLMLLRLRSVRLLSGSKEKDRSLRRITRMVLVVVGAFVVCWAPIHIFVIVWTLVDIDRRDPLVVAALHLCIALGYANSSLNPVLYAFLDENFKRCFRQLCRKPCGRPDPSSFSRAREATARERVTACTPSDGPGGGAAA
T1 sequence (P42866 whole entry): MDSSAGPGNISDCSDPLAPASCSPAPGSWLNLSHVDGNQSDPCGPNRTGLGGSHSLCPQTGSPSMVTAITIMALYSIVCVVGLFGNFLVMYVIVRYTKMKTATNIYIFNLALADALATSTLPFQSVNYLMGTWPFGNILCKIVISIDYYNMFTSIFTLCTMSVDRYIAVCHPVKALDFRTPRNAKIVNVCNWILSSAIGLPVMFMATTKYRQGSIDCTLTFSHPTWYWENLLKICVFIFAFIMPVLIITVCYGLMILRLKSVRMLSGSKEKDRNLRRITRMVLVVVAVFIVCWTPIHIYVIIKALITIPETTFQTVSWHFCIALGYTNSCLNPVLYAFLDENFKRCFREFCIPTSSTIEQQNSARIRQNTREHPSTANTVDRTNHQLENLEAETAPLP
T3 sequence (P41145 whole entry): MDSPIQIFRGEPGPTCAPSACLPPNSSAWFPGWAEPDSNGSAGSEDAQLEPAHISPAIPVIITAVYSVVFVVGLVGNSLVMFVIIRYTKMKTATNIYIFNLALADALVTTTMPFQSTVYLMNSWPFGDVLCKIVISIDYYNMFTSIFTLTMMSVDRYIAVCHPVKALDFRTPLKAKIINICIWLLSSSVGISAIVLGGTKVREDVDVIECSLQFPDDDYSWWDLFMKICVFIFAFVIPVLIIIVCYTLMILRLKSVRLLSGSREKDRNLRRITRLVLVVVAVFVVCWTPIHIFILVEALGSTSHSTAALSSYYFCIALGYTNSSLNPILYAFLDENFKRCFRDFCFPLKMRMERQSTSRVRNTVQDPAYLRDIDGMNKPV
Sequence of mouse μ opioid receptor (P42866 whole entry): as the sequence (P42866 whole entry) above
T4 sequence (P33535 whole entry): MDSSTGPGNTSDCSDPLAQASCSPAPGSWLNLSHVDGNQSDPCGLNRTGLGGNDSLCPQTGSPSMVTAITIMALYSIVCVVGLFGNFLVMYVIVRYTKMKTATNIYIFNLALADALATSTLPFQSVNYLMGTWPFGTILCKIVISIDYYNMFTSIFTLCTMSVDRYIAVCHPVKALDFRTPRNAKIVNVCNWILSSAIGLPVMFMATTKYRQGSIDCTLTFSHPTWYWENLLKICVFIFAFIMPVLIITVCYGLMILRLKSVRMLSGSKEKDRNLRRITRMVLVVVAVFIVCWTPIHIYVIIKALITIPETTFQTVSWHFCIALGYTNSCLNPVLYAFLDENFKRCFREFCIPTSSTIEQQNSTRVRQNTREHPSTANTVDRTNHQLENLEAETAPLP

## C=CCN1CC[C@]23c4c5ccc(O)c4O[C@H]2C(=O)CC[C@@]3(O)[C@H]1C5 [naloxone, reference compound]
Swiss Webster mice
  AD50 (antagonism of morphine antinociception): 0.05 mg/kg

## 17-Cyclopropylmetyl-3,14β-dihydroxy-4,5α-epoxy-6β-[(3′-carboxyl-4′-pyridyl) acetamido]morphinan [Compound 5]
MOR [1]; MOR-CHO membranes
  EC50: 1.83 ± 0.18 nM
MOR [1]
  MOR 35S-GTP[γS] Binding % Emax of DAMGO: 29.27 ± 1.42%
DOR [2]
  Selectivity δ/μ: 73.2
DOR [2]; read-out: Ki DOR
  Ki: 55.6 ± 6.02 nM
MOR [3]
  Ki: 0.76 ± 0.08 nM
KOR [4]
  Selectivity κ/μ: 3.2
KOR [4]; read-out: Ki KOR
  Ki: 2.43 ± 0.19 nM

## O=C(N[C@@H]1CC[C@@]2(O)[C@H]3Cc4ccc(O)c5c4[C@@]2(CCN3CC2CC2)[C@H]1O5)c1ccncc1F [Compound 1]
MOR [5]; NFP 1 μM, 24 h pretreatment of mMOR-CHO cells
  Emax of DAMGO-stimulated [35S]GTPγS binding after pretreatment (net): 156.20 ± 13.83 fmol/mg
Mouse μ opioid receptor
  IC50: 76.1 ± 2.5 nM
Mouse μ opioid receptor; mMOR-CHO cells transfected with Gαqi5, up to 3 μM
  EC50, Ca2+ signal (agonist mode): did not induce any apparent Ca^2+ signal
P-gp; Caco-2, pH 7.4
  efflux ratio at 2 h, 20 μM: 7 ± 0.5
P-gp; Caco-2, pH 7.4, with elacridar 1 μM
  efflux ratio at 2 h, 20 μM: 1.3 ± 0.3
Caco-2 monolayers [6]; Caco-2, with or without elacridar
  P-gp substrate: may be a P-gp substrate
Caco-2 monolayers [6]; NFP 20 μM, 37° C., 2 h
  Papp, B-A (efflux) compared with Papp, A-B (absorption): much higher
Swiss Webster mice
  AD50 (antagonism of morphine antinociception): 2.82 (1.34-5.94) mg/kg
Swiss Webster mice; listed as 1 (NFP)
  % MPE of morphine (10 mg/kg) in the presence of test compound (antagonism): antagonized morphine's antinociception effect significantly
Swiss Webster mice; listed as NFP
  % MPE of morphine (10 mg/kg) in the presence of test compound (antagonism): 6.2±2.4%
morphine-pelleted mice; 10 mg/kg s.c., 20 min
  Wet dog shakes, jumps and paw tremors versus naloxone 1 mg/kg: significantly fewer wet dog shakes, jumps, and paw tremors
morphine-pelleted mice; 50 mg/kg s.c.
  Jumps versus naloxone 1 mg/kg: significantly fewer jumps
morphine-pelleted mice; 50 and 100 mg/kg s.c.
  Wet dog shakes and paw tremors versus naloxone 1 mg/kg: not significantly different from those of naloxone
C57BL/6J mice; NFP 0.3 mg/kg s.c. pretreatment, 10 mg/kg cumulative morphine, p=0.0013
  Antinociception (% MPE) of morphine in NFP group relative to vehicle-treated group, Day 1: significantly less antinociception
C57BL/6J mice; after five days of 10 mg/kg morphine + 0.3 mg/kg NFP, 32 mg/kg cumulative morphine, p=0.0138
  Antinociception (% MPE) of morphine in NFP group relative to Vehicle Group, Day 7: significantly less antinociception
MOR [1]; mMOR-CHO membranes
  Relative efficacy versus naltrexone: ~3 fold
MOR [1]; MOR-CHO membranes
  EC50: 1.2 ± 0.19 nM
MOR [7]; read-out: Emax, stimulation of [35S]GTPγS binding (normalized to DAMGO), mMOR-CHO membranes, ligand alone, concentration-effect curve
  Emax: 34.9 ± 1.5%
MOR [7]; [14]
  Emax: 35 ± 3.07%
MOR [7]; read-out: Maximal inhibition (minimum) as % of maximal stimulation produced by DAMGO, in the presence of 0.3 μM DAMGO, mMOR-CHO membranes
  Emax: 37.7 ± 1.5%
Rat MOR
  Internalization of the MOR: did not
DOR [2]
  Ki: 157 ± 7.81 nM
MOR [3]
  Ki: 0.36 ± 0.02 nM
KOR [4]
  Ki: 4.8 ± 0.26 nM

## Cc1cc(C(=O)N[C@@H]2CCC3(O)C4Cc5ccc(O)c6c5[C@@]3(CCN4CC3CC3)[C@H]2O6)ccn1 (some centres unmarked) (as salt: hydrochloride)
other
  melting point: 248 °C (dec.)

## COc1cc(C(=O)N[C@@H]2CCC3(O)C4Cc5ccc(O)c6c5[C@@]3(CCN4CC3CC3)[C@H]2O6)ccn1 (some centres unmarked) (as salt: hydrochloride)
other
  melting point: 244 to 248 °C (dec.)

## C[C@@H](NC(=O)[C@@H](N)Cc1ccc(O)cc1)C(=O)NCC(=O)N(C)[C@@H](Cc1ccccc1)C(=O)NCCO [DAMGO, reference compound]
MOR [5]; pretreated mMOR-CHO cells
  Increase of DAMGO EC50 compared with vehicle treated group: ~4 fold
MOR [8]
  Emax of DAMGO-stimulated [35S]GTPγS binding after pretreatment (net): 121.62 ± 13.78 fmol/mg

## N#Cc1cnccc1C(=O)N[C@@H]1CC[C@@]2(O)[C@H]3Cc4ccc(O)c5c4[C@@]2(CCN3CC2CC2)[C@H]1O5 [Compound 2]
Swiss Webster mice; listed as 2 (NYP)
  % MPE of morphine (10 mg/kg) in the presence of test compound (antagonism): antagonized morphine's antinociception effect significantly
Swiss Webster mice; listed as NYP
  % MPE of morphine (10 mg/kg) in the presence of test compound (antagonism): 7.8±5.4%
morphine-pelleted mice; 1 mg/kg s.c.
  Wet dog shakes and jumps versus naloxone 1 mg/kg: significantly fewer wet dog shakes and jumps
MOR [1]; MOR-CHO membranes
  EC50: 1.28 ± 0.2 nM
MOR [7]; [14]
  Emax: 26.1 ± 0.74%
DOR [2]
  Ki: 46.3 ± 7.86 nM
MOR [3]
  Ki: 0.87 ± 0.09 nM
KOR [4]
  Ki: 2.74 ± 0.47 nM

## O=C(N[C@@H]1CCC2(O)C3Cc4ccc(O)c5c4[C@@]2(CCN3CC2CC2)[C@H]1O5)c1ccnc(Br)c1 (some centres unmarked) (as salt: hydrochloride)
other
  melting point: > 250 °C

## O=C(N[C@@H]1CC[C@@]2(O)[C@H]3Cc4ccc(O)c5c4[C@@]2(CCN3CC2CC2)[C@H]1O5)c1ccncc1-c1ccccc1 [Compound 12]
MOR [1]; MOR-CHO membranes
  EC50: 1.46 ± 0.18 nM
MOR [7]; [14]
  Emax: 44.4 ± 3.12%
DOR [2]
  Ki: 44.8 ± 3.7 nM
MOR [3]
  Ki: 0.63 ± 0.05 nM
KOR [4]
  Ki: 3.42 ± 0.38 nM

## O=C(N[C@@H]1CCC2(O)C3Cc4ccc(O)c5c4[C@@]2(CCN3CC2CC2)[C@H]1O5)c1ccnc(Cl)c1 (some centres unmarked) (as salt: hydrochloride)
other
  melting point: > 250 °C

## C[C@H]1O[C@@H](O[C@H]2[C@@H](O)C[C@H](O[C@H]3[C@@H](O)C[C@H](O[C@H]4CC[C@@]5(C)[C@H](CC[C@@H]6[C@@H]5C[C@@H](O)[C@]5(C)[C@@H](C7=CC(=O)OC7)CC[C@]65O)C4)O[C@@H]3C)O[C@@H]2C)C[C@H](O)[C@@H]1O [digoxin]
Caco-2 monolayers [9]; after elacridar was added
  PDR: 1.2
Caco-2 monolayers [9]; without elacridar
  PDR: 5.1

## O=C(N[C@@H]1CC[C@@]2(O)[C@H]3Cc4ccc(O)c5c4[C@@]2(CCN3CC2CC2)[C@H]1O5)c1ccncc1C1CCCCC1 [Compound 10]
MOR [1]; MOR-CHO membranes
  EC50: 2.46 ± 0.3 nM
MOR [7]; [14]
  Emax: 51.6 ± 3.73%
DOR [2]
  Ki: 11.2 ± 1.91 nM
MOR [3]
  Ki: 0.78 ± 0.09 nM
KOR [4]
  Ki: 3.32 ± 0.54 nM

## Cc1cnccc1C(=O)N[C@@H]1CC[C@@]2(O)[C@H]3Cc4ccc(O)c5c4[C@@]2(CCN3CC2CC2)[C@H]1O5 [NMP, N-((4R,4aS,7R,7aR,12bS)-3-(cyclopropylmethyl)-4a,9-dihydroxy-2,3,4,4a,5,6,7,7a-octahydro-1H-4,12-methanobenzofuro[3,2-e]isoquinolin-7-yl)-3-methylisonicotinamide]
MOR [10]
  Ki: 0.58 ± 0.25 nM
MOR [11]; read-out: MOR 35S-GTP[γS] Binding EC50
  EC50: 1.52 ± 0.26 nM
MOR [11]
  MOR 35S-GTP[γS] Binding % Emax of DAMGO: 30.63 ± 0.55%
KOR [12]
  Selectivity κ/μ: 166
DOR [13]
  Selectivity δ/μ: 470

## O=C(Cc1ccncc1C(F)(F)F)N[C@@H]1CC[C@@]2(O)[C@H]3Cc4ccc(O)c5c4[C@@]2(CCN3CC2CC2)[C@H]1O5 [Compound 4, 17-Cyclopropylmetyl-3,14β-dihydroxy-4,5α-epoxy-6β-[(3′-trifluromethyl-4′-pyridyl)acetamido]morphinan]
MOR [1]; MOR-CHO membranes
  EC50: 1.38 ± 0.2 nM
MOR [1]
  MOR 35S-GTP[γS] Binding % Emax of DAMGO: 31.88 ± 3.39%
DOR [2]
  Selectivity δ/μ: 143.7
DOR [2]; read-out: Ki DOR
  Ki: 61.8 ± 5 nM
MOR [3]
  Ki: 0.43 ± 0.01 nM
KOR [4]
  Selectivity κ/μ: 29.1
KOR [4]; read-out: Ki KOR
  Ki: 12.5 ± 0.89 nM

## CC(C)Cc1cnccc1C(=O)N[C@@H]1CC[C@@]2(O)[C@H]3Cc4ccc(O)c5c4[C@@]2(CCN3CC2CC2)[C@H]1O5 [Compound 8]
MOR [1]; MOR-CHO membranes
  MOR 35S-GTP[γS] Binding EC50: lowest potency
  EC50: 19.7 ± 2.37 nM
MOR [7]; [14]
  Emax: 27.3 ± 0.25%
DOR [2]
  Ki: 149 ± 16 nM
MOR [3]
  Ki: 7.2 ± 0.81 nM
  Ki MOR: nanomolar binding affinity
KOR [4]
  Ki: 75.6 ± 3.87 nM
